Tests used:
Type in all cases: functional
Conditions in all cases: read-out: GI
[1] = tested on: Cryptococcus neoformans; assay: Antifungal activity against Cryptococcus neoformans ATCC 32264 assessed as inhibition of fungal growth at 6.25 uM
[2] = tested on: Cryptococcus neoformans; assay: Antifungal activity against Cryptococcus neoformans ATCC 32264 assessed as inhibition of fungal growth at 100 uM
[3] = tested on: Candida albicans; assay: Antifungal activity against Candida albicans ATCC 10231 assessed as inhibition of fungal growth at 200 uM
[4] = tested on: Candida albicans; assay: Antifungal activity against Candida albicans ATCC 10231 assessed as inhibition of fungal growth at 50 uM
[5] = tested on: Cryptococcus neoformans; assay: Antifungal activity against Cryptococcus neoformans ATCC 32264 assessed as inhibition of fungal growth at 12.5 uM
[6] = tested on: Candida albicans; assay: Antifungal activity against Candida albicans ATCC 10231 assessed as inhibition of fungal growth at 6.25 uM
[7] = tested on: Cryptococcus neoformans; assay: Antifungal activity against Cryptococcus neoformans ATCC 32264 assessed as inhibition of fungal growth at 25 uM
[8] = tested on: Candida albicans; assay: Antifungal activity against Candida albicans ATCC 10231 assessed as inhibition of fungal growth at 12.5 uM
[9] = tested on: Cryptococcus neoformans; assay: Antifungal activity against Cryptococcus neoformans ATCC 32264 assessed as inhibition of fungal growth at 50 uM
[10] = tested on: Candida albicans; assay: Antifungal activity against Candida albicans ATCC 10231 assessed as inhibition of fungal growth at 100 uM
[11] = tested on: Cryptococcus neoformans; assay: Antifungal activity against Cryptococcus neoformans ATCC 32264 assessed as inhibition of fungal growth at 200 uM
[12] = tested on: Candida albicans; assay: Antifungal activity against Candida albicans ATCC 10231 assessed as inhibition of fungal growth at 25 uM

CC[C@H](C)[C@H](NC(=O)[C@H](CCCCN)NC(=O)[C@@H](NC(=O)[C@H](CCC(N)=O)NC(=O)[C@H](CCCNC(=N)N)NC(=O)[C@H](Cc1c[nH]c2ccccc12)NC(=O)[C@H](CCCNC(=N)N)NC(=O)[C@H](Cc1ccccc1)NC(=O)[C@@H](N)Cc1cnc[nH]1)[C@@H](C)CC)C(=O)N[C@@H](Cc1c[nH]c2ccccc12)C(=O)N[C@@H](Cc1ccccc1)C(=O)N[C@@H](CCC(N)=O)C(=O)N[C@@H](CC(N)=O)C(=O)N[C@@H](CCCNC(=N)N)C(=O)N[C@@H](CCCNC(=N)N)C(=O)N[C@@H](CCSC)C(=O)N[C@@H](CCCCN)C(=O)N[C@@H](Cc1c[nH]c2ccccc12)C(=O)N[C@@H](CCCCN)C(=O)N[C@@H](CCCCN)C(N)=O
inhibition of growth at 6.25 µM [1]: 51%
inhibition of growth at 100 µM [2]: 100%
inhibition of growth at 200 µM [3]: 100%
inhibition of growth at 50 µM [4]: 93.4%
inhibition of growth at 12.5 µM [5]: 74.3%
inhibition of growth at 6.25 µM [6]: 0.9%
inhibition of growth at 25 µM [7]: 85.9%
inhibition of growth at 12.5 µM [8]: 3.85%
inhibition of growth at 50 µM [9]: 87.3%
inhibition of growth at 100 µM [10]: 100%
inhibition of growth at 200 µM [11]: 100%
inhibition of growth at 25 µM [12]: 4.86%

CC[C@H](C)[C@H](NC(=O)[C@H](CCCCN)NC(=O)[C@@H]1CCCN1C(=O)[C@H](CCC(N)=O)NC(=O)[C@@H](N)CCCNC(=N)N)C(=O)N[C@H](Cc1c[nH]c2ccccc12)C(=O)N[C@@H](Cc1ccccc1)C(=O)N1CCC[C@H]1C(=O)N[C@@H](CC(N)=O)C(=O)N[C@@H](CCCNC(=N)N)C(=O)N[C@@H](CCCNC(=N)N)C(=O)N[C@@H](CCCCN)C(=O)N1CCC[C@H]1C(=O)N[C@@H](Cc1c[nH]c2ccccc12)C(=O)N[C@@H](CCCCN)C(=O)N[C@@H](CCCCN)C(N)=O
inhibition of growth at 6.25 µM [1]: 79.9%
inhibition of growth at 100 µM [2]: 100%
inhibition of growth at 200 µM [3]: 100%
inhibition of growth at 50 µM [4]: 41.4%
inhibition of growth at 12.5 µM [5]: 100%
inhibition of growth at 6.25 µM [6]: 0%
inhibition of growth at 25 µM [7]: 100%
inhibition of growth at 12.5 µM [8]: 6.1%
inhibition of growth at 50 µM [9]: 100%
inhibition of growth at 100 µM [10]: 100%
inhibition of growth at 200 µM [11]: 100%
inhibition of growth at 25 µM [12]: 15.4%

CC(=O)N1CCN(c2ccc(OCC3COC(Cn4ccnc4)(c4ccc(Cl)cc4Cl)O3)cc2)CC1 (configuration not stated) [KETOCONAZOLE]
inhibition of growth at 6.25 µM [1]: 100%
inhibition of growth at 100 µM [2]: 100%
inhibition of growth at 200 µM [3]: 100%
inhibition of growth at 50 µM [4]: 100%
inhibition of growth at 12.5 µM [5]: 100%
inhibition of growth at 6.25 µM [6]: 100%
inhibition of growth at 25 µM [7]: 100%
inhibition of growth at 12.5 µM [8]: 100%
inhibition of growth at 50 µM [9]: 100%
inhibition of growth at 100 µM [10]: 100%
inhibition of growth at 200 µM [11]: 100%
inhibition of growth at 25 µM [12]: 100%

H-KKWKMRRNQFWIKIQR-NH2
inhibition of growth at 6.25 µM [1]: 55.9%
inhibition of growth at 100 µM [2]: 100%
inhibition of growth at 200 µM [3]: 100%
inhibition of growth at 50 µM [4]: 100%
inhibition of growth at 12.5 µM [5]: 89.5%
inhibition of growth at 6.25 µM [6]: 0%
inhibition of growth at 25 µM [7]: 94.1%
inhibition of growth at 12.5 µM [8]: 12%
inhibition of growth at 50 µM [9]: 99%
inhibition of growth at 100 µM [10]: 100%
inhibition of growth at 200 µM [11]: 100%
inhibition of growth at 25 µM [12]: 25.8%

CC[C@H](C)[C@H](NC(=O)[C@H](CCCCN)NC(=O)[C@@H](NC(=O)[C@H](CCC(N)=O)NC(=O)[C@@H](N)CCCNC(=N)N)[C@@H](C)CC)C(=O)N[C@@H](Cc1c[nH]c2ccccc12)C(=O)N[C@@H](Cc1ccccc1)C(=O)N[C@@H](CCC(N)=O)C(=O)N[C@@H](CC(N)=O)C(=O)N[C@@H](CCCNC(=N)N)C(=O)N[C@@H](CCCNC(=N)N)C(=O)N[C@@H](CCSC)C(=O)N[C@@H](CCCCN)C(=O)N[C@@H](Cc1c[nH]c2ccccc12)C(=O)N[C@@H](CCCCN)C(=O)N[C@@H](CCCCN)C(N)=O [PENETRATIN]
inhibition of growth at 6.25 µM [1]: 60%
inhibition of growth at 100 µM [2]: 100%
inhibition of growth at 200 µM [3]: 100%
inhibition of growth at 50 µM [4]: 95%
inhibition of growth at 12.5 µM [5]: 90%
inhibition of growth at 6.25 µM [6]: 0%
inhibition of growth at 25 µM [7]: 100%
inhibition of growth at 12.5 µM [8]: 4%
inhibition of growth at 50 µM [9]: 100%
inhibition of growth at 100 µM [10]: 100%
inhibition of growth at 200 µM [11]: 100%
inhibition of growth at 25 µM [12]: 91%

C[C@@H]1[C@H](O)[C@@H](C)/C=C/C=C/C=C/C=C/C=C/C=C/C=C/[C@H](O[C@@H]2O[C@H](C)[C@@H](O)[C@H](N)[C@@H]2O)C[C@@H]2O[C@](O)(C[C@@H](O)C[C@@H](O)[C@H](O)CC[C@@H](O)C[C@@H](O)CC(=O)O[C@H]1C)C[C@H](O)[C@H]2C(=O)O [AMPHOTERICIN B]
inhibition of growth at 6.25 µM [1]: 100%
inhibition of growth at 100 µM [2]: 100%
inhibition of growth at 200 µM [3]: 100%
inhibition of growth at 50 µM [4]: 100%
inhibition of growth at 12.5 µM [5]: 100%
inhibition of growth at 6.25 µM [6]: 100%
inhibition of growth at 25 µM [7]: 100%
inhibition of growth at 12.5 µM [8]: 100%
inhibition of growth at 50 µM [9]: 100%
inhibition of growth at 100 µM [10]: 100%
inhibition of growth at 200 µM [11]: 100%
inhibition of growth at 25 µM [12]: 100%
